The record followed here is patent US10428083B2, “Heterocyclylmethyl-thienouracile as antagonists of the adenosine-A2B-receptor” (BAYER PHARMA AKTIENGESELLSCHAFT, priority 2015, dated 2019).

The target in the test is human adenosine A2b receptor (Homo sapiens (Human), UniProt P29275). The test can be described thus: Cellular in vitro reporter gene test for A2b receptor activity (CHO-K1, CRE-luciferase, NECA stimulation). The format is cell-based. The following applies: recombinant CHO-K1 cell line, CRE-luciferase reporter, antagonism of EC50 concentration of NECA; in some cases means of several determinations, rounded to two significant figures; read-out: A2b receptor IC50. An outline of the steps: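 CHO-K1 cells with CRE-driven luciferase; antagonists co-incubated with NECA at its EC50, determined in a pre-experiment on each test day. Luciferase read by luminescence 3 h after NECA addition.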
Sequence of human adenosine A2b receptor (P29275 whole entry): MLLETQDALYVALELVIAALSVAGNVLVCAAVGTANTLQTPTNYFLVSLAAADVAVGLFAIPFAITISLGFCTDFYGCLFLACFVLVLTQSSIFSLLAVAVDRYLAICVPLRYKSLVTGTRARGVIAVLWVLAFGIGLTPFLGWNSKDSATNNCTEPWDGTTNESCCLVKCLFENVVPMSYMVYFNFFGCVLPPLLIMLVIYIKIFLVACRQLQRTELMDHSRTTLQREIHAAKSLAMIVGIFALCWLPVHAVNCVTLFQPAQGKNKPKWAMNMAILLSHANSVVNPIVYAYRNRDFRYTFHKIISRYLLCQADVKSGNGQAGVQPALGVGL
For `CCn1c(=O)c2c(C)c(CN3CCCS3(=O)=O)sc2n(CCC(F)(F)F)c1=O` [Example 16, 6-[(1,1-Dioxido-1,2-thiazolidin-2-yl)methyl]-3-ethyl-5-methyl-1-(3,3,3-trifluoropropyl)thieno[2,3-d]pyrimidine-2,4(1H,3H)-dione], the IC50 (usually the point on the concentration scale where inhibition reaches its midpoint) is 2.7 nM.

Take `COCCn1c(=O)n(CC(C)C)c(=O)c2c(C)c(CN3CCN(C=O)C3=S)sc21` [Example 46, 3-{[3-Isobutyl-1-(2-methoxyethyl)-5-methyl-2,4-dioxo-1,2,3,4-tetrahydrothieno[2,3-d]pyrimidin-6-yl]methyl}-2-thioxoimidazolidine-1-carbaldehyde]: the IC50 is 29 nM.

As to `COC(=O)N=C1NCCN1Cc1sc2c(c1C)c(=O)n(C(C)C)c(=O)n2CC1CCCO1` (single isomer, unassigned) [Example 460, Methyl [1-{[3-isopropyl-5-methyl-2,4-dioxo-1-(tetrahydrofuran-2-ylmethyl)-1,2,3,4-tetrahydrothieno[2,3-d]pyrimidin-6-yl]methyl}imidazolidin-2-ylidene]carbamate], the IC50 was found to be 22 nM.

On to `CCOCCn1c(=O)c2c(C)c(CN3CCNC3=O)sc2n(CCC(F)(F)F)c1=O` [Example 326, 3-(2-Ethoxyethyl)-5-methyl-6-[(2-oxoimidazolidin-1-yl)methyl]-1-(3,3,3-trifluoropropyl)thieno[2,3-d]pyrimidine-2,4(1H,3H)-dione], for which the half-inhibitory concentration (IC50) turned out to be 10 nM.

For the compound `Cc1c(CN2CCNC2=O)sc2c1c(=O)n(CC(F)(F)F)c(=O)n2CC1CCCO1` (single isomer, unassigned) [Example 210, 5-Methyl-6-[(2-oxoimidazolidin-1-yl)methyl]-1-(tetrahydrofuran-2-ylmethyl)-3-(2,2,2-trifluoroethyl)thieno[2,3-d]pyrimidine-2,4(1H,3H)-dione], the IC50 was determined as 9.1 nM.

`Cc1c(CN2CCN(C)C2=O)sc2c1c(=O)n(CC(F)(F)F)c(=O)n2CCC(F)(F)F` [Example 336, 5-Methyl-6-[(3-methyl-2-oxoimidazolidin-1-yl)methyl]-3-(2,2,2-trifluoroethyl)-1-(3,3,3-trifluoropropyl)thieno[2,3-d]pyrimidine-2,4(1H,3H)-dione]: the concentration for half-maximal inhibition (IC50) came to 8.7 nM.

As for `COC(=O)N=C1NCCN1Cc1sc2c(c1C)c(=O)n(CC(F)(F)F)c(=O)n2CC1CCCO1` (racemic) [Example 384, Methyl [1-{[5-methyl-2,4-dioxo-1-(tetrahydrofuran-2-ylmethyl)-3-(2,2,2-trifluoroethyl)-1,2,3,4-tetrahydrothieno[2,3-d]pyrimidin-6-yl]methyl}imidazolidin-2-ylidene]carbamate], the IC50 turned out to be 9.8 nM.

With `COC(C)(C)Cn1c(=O)c2c(C)c(CN3CCNC3=S)sc2n(CCC(F)(F)F)c1=O` [Example 170, 3-(2-Methoxy-2-methylpropyl)-5-methyl-6-[(2-thioxoimidazolidin-1-yl)methyl]-1-(3,3,3-trifluoropropyl)thieno[2,3-d]pyrimidine-2,4(1H,3H)-dione], the IC50 turned out to be 4.4 nM.

As for `COCCn1c(=O)n(CCc2ccccc2)c(=O)c2c(C)c(CN3CCNC3=O)sc21` [Example 176, 1-(2-Methoxyethyl)-5-methyl-6-[(2-oxoimidazolidin-1-yl)methyl]-3-(2-phenylethyl)thieno[2,3-d]pyrimidine-2,4(1H,3H)-dione], the concentration for half-maximal inhibition (IC50) came to 1.5 nM.

Turning to `CCOCCn1c(=O)c2c(C)c(CN3CCNC(=O)C3=O)sc2n(CCC(F)(F)F)c1=O` [Example 403, 6-[(2,3-Dioxopiperazin-1-yl)methyl]-3-(2-ethoxyethyl)-5-methyl-1-(3,3,3-trifluoropropyl)thieno[2,3-d]pyrimidine-2,4(1H,3H)-dione], the IC50 amounted to 35 nM.

On to `COCCn1c(=O)n(CC(C)(C)C)c(=O)c2c(C)c(CN3CCNC3=NC#N)sc21` [Example 445, [1-{[3-(2,2-Dimethylpropyl)-1-(2-methoxyethyl)-5-methyl-2,4-dioxo-1,2,3,4-tetrahydrothieno[2,3-d]pyrimidin-6-yl]methyl}imidazolidin-2-ylidene]cyanamide], for which the IC50 was determined as 12 nM.

On to `Cc1c(Cn2cc[nH]c2=O)sc2c1c(=O)n(CC(F)(F)F)c(=O)n2CCC(F)(F)F` [Example 339, 5-Methyl-6-[(2-oxo-2,3-dihydro-1H-imidazol-1-yl)methyl]-3-(2,2,2-trifluoroethyl)-1-(3,3,3-trifluoropropyl)thieno[2,3-d]pyrimidine-2,4(1H,3H)-dione], for which the IC50 stood at 5.6 nM.

`CCn1c(=O)c2c(C)c(CN3CCNC3=S)sc2n(CC2CCCCO2)c1=O` (single isomer, unassigned) [Example 142, 3-Ethyl-5-methyl-1-(tetrahydro-2H-pyran-2-ylmethyl)-6-[(2-thioxoimidazolidin-1-yl)methyl]thieno[2,3-d]pyrimidine-2,4(1H,3H)-dione]: the IC50 turned out to be 13 nM.

Regarding `COCCn1c(=O)n(CC2CCCO2)c(=O)c2c(C)c(CN3CCNC3=O)sc21` (single isomer, unassigned) [Example 333, 1-(2-Methoxyethyl)-5-methyl-6-[(2-oxoimidazolidin-1-yl)methyl]-3-(tetrahydrofuran-2-ylmethyl)thieno[2,3-d]pyrimidine-2,4(1H,3H)-dione], the IC50 worked out at 110 nM.

In the case of `COCCCn1c(=O)c2c(C)c(CN3CCNC3=O)sc2n(CCOC)c1=O` [Example 328, 1-(2-Methoxyethyl)-3-(3-methoxypropyl)-5-methyl-6-[(2-oxoimidazolidin-1-yl)methyl]thieno[2,3-d]pyrimidine-2,4(1H,3H)-dione], the IC50 amounted to 19 nM.

In the case of `CCn1c(=O)c2c(C)c(CN3CCNC3=S)sc2n(CCC(C)(C)C)c1=O` [Example 37, 1-(3,3-Dimethylbutyl)-3-ethyl-5-methyl-6-[(2-thioxoimidazolidin-1-yl)methyl]thieno[2,3-d]pyrimidine-2,4(1H,3H)-dione], the IC50 is 220 nM.

Consider `Cc1c(CN2CCNC(=O)C2=O)sc2c1c(=O)n(C(C)C)c(=O)n2CCC(F)(F)F` [Example 478, 6-[(2,3-Dioxopiperazin-1-yl)methyl]-3-isopropyl-5-methyl-1-(3,3,3-trifluoropropyl)thieno[2,3-d]pyrimidine-2,4(1H,3H)-dione], for which the IC50 came to 41 nM.

Turning to `CCn1c(=O)c2c(C)c(CN3CCN(C(C)C)C3=S)sc2n(CC2CCCO2)c1=O` (racemic) [Example 175, 3-Ethyl-6-[(3-isopropyl-2-thioxoimidazolidin-1-yl)methyl]-5-methyl-1-(tetrahydrofuran-2-ylmethyl)thieno[2,3-d]pyrimidine-2,4(1H,3H)-dione], the IC50 stood at 53 nM.

Turning to `COCCn1c(=O)n(CC(C)C)c(=O)c2c(C)c(CN3CCNC3=S)sc21` [Example 39, 3-Isobutyl-1-(2-methoxyethyl)-5-methyl-6-[(2-thioxoimidazolidin-1-yl)methyl]thieno[2,3-d]pyrimidine-2,4(1H,3H)-dione], the IC50 amounted to 3.6 nM.

Consider `CCn1c(=O)c2c(C)c(CN3CCNC3=S)sc2n(CCCF)c1=O` [Example 29, 3-Ethyl-1-(3-fluoropropyl)-5-methyl-6-[(2-thioxoimidazolidin-1-yl)methyl]thieno[2,3-d]pyrimidine-2,4(1H,3H)-dione], for which the IC50 is 4.1 nM.

For the compound `COC(C)Cn1c(=O)c2c(C)c(CN3CCNC(=O)C3=O)sc2n(CCC(F)(F)F)c1=O` (single isomer, unassigned) [Example 494, 6-[(2,3-Dioxopiperazin-1-yl)methyl]-3-(2-methoxypropyl)-5-methyl-1-(3,3,3-trifluoropropyl)thieno[2,3-d]pyrimidine-2,4(1H,3H)-dione], the IC50 turned out to be 20 nM.
